Measurements: patent US8361968B2 (Takeda Pharmaceutical Company Limited, priority 2002, dated 2013)
Numbered stars: 1 amine (or outer) side, 2 acyl side, 3 side chain; on linkers, the order of the positions; unused ones are H or OH. Square brackets hold non-standard residues; d marks the D form. Peptide text beside a SMILES is read from it. * marks the point of attachment. X11 = O=C(CNC(=S)[C@H](Cc1ccccc1)N[*:1])[*:2]; Arg(Me) = CNC(=N)NCCC[C@H](N)C(=O)O; Fmoc = O=C(OCC1c2ccccc2-c2ccccc21)*; 2Pal = N[C@@H](Cc1ccccn1)C(=O)O; d3Pal = N[C@H](Cc1cccnc1)C(=O)O; d4Pal = N[C@H](Cc1ccncc1)C(=O)O; Cha = N[C@@H](CC1CCCCC1)C(=O)O; azaGly = NNC(=O)O

What was measured:
[1] = biological target: T1, hOT7T175 (Homo sapiens, UniProt Q969F8, L364H); assay: hOT7T175 receptor binding activity: binding inhibition of Cy-5-labeled metastin (40-54) on hOT7T175-expressed CHO cells; design: expressed in transfected cells; host or cells: CHO cells
T1 sequence (Q969F8 whole entry L364H): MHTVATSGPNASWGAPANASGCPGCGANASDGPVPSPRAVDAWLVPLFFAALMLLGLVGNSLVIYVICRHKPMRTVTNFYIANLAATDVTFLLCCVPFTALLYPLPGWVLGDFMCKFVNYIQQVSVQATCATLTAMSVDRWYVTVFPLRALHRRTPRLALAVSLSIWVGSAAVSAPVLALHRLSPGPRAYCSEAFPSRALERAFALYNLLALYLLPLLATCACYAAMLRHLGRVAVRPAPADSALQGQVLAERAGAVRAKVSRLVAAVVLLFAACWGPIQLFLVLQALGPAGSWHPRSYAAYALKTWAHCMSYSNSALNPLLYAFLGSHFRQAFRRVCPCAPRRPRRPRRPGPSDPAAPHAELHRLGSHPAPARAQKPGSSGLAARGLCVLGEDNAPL
Experimental: Assay for hOT7T175 Receptor Binding Activity
h0T7T175-Expressed CHO cells were cultured in MEM-cc medium (nucleic acid-free) containing 10% dialyzed serum. The medium was removed and the adherent cells were washed with PBS. Then, PBS containing 5 mM EDTA was added and the cells were scraped from a flask with a cell scraper. […] To each well of a 96-Well Black Clear Bottom Plate (Applied Biosystems, Inc.), 10 μL of assay buffer containing 1% dimethylsulfoxide was added to examine total binding, 10 μL of 10 μM non-labeled peptide (having the same amino acid sequence as that of the labeled one) solution diluted with assay buffer to examine non-specific binding, and 10 μL of a test compound diluted with assay buffer to examine the binding inhibition activity of the test compound, respectively. Furthermore, 90 μL each of the cell suspension was dispensed to each well. […] The specific binding is a value obtained by subtracting the non-specific binding from the total binding.

[2] = biological target: T1, hOT7T175; assay: Intracellular Ca ion level-increasing activity using FLIPR in hOT7T175/CHO; type: cell-based; design: expressed in transfected cells; host or cells: CHO/dhfr- cells, obtained from ATCC; settings: relative, Metastin (1-54) = 1

Row | Specific Activity (intracellular Ca ion level-increasing activity) [2] | SMILES | IC50 [1] [nM]
1 | – | CC(C)C[C@H](NC(=O)CNC(=O)[C@H](Cc1ccccc1)NC(=O)[C@H](CO)NC(=O)[C@H](CC(N)=O)NC(=O)[C@H](Cc1c[nH]c2ccccc12)NC(=O)[C@@H](N)CC(N)=O)C(=O)N[C@@H](CCCNC(=N)N)C(=O)N[C@@H](Cc1ccccc1)C(N)=O [Compound No. 4, des(1)-MS10, reference compound] (H-NWNSFGLRF-NH2; N-terminus assumed) | 260
2 | – | CNC(=N)NCCC[C@H](NC(=O)[C@H](CC(C)C)NC(=O)NNC(=O)[C@H](Cc1ccccc1)NC(=O)[C@H](CO)NC(=O)[C@H](CC(N)=O)NC(=O)[C@H](Cc1ccccn1)NC(=O)[C@H](CC(N)=O)NC(=O)[C@H](N)Cc1ccc(O)cc1)C(=O)N[C@@H](Cc1ccccc1)C(N)=O [Compound No. 285, D-Tyr-Asn-Pya(2)-Asn-Ser-Phe-AzaGly-Leu-Arg(Me)-Phe-NH2] (H-[dY]N[2Pal]NSF[azaGly]L[Arg(Me)]F-NH2) | 40
3 | – | CNC(N)=NCCC[C@H](NC(=O)[C@H](CC(C)C)NC(=O)NNC(=O)[C@H](Cc1ccccc1)NC(=O)[C@H](CO)NC(=O)[C@H](CC(N)=O)NC(=O)[C@@H](NC(=O)[C@H](CC(N)=O)NC(=O)[C@H](N)Cc1ccc(O)cc1)[C@@H](C)O)C(=O)N[C@@H](Cc1ccccc1)C(N)=O [Compound No. 221, D-Tyr-Asn-Thr-Asn-Ser-Phe-AzaGly-Leu-Arg(Me)-Phe-NH2] (H-[dY]NTNSF[azaGly]L[Arg(Me)]F-NH2) | 95
4 | – | C/N=C(/NC)NCCC[C@H](NC(=O)[C@H](CC(C)C)NC(=O)CNC(=O)[C@H](Cc1ccccc1)NC(=O)[C@H](CO)NC(=O)[C@H](CC(N)=O)NC(=O)[C@H](Cc1c[nH]c2ccccc12)NC(=O)[C@H](CC(N)=O)NC(=O)[C@@H](N)Cc1ccc(O)cc1)C(=O)N[C@@H](Cc1ccccc1)C(N)=O [Compound No. 129] | 83
5 | – | CC(C)C[C@H](NC(=O)CNC(=O)[C@H](Cc1ccc(O)cc1)NC(=O)[C@H](CO)NC(=O)[C@H](CC(N)=O)NC(=O)[C@H](Cc1c[nH]c2ccccc12)NC(=O)[C@H](CC(N)=O)NC(=O)[C@@H](N)Cc1ccc(O)cc1)C(=O)N[C@@H](CCCNC(=N)N)C(=O)N[C@@H](Cc1ccccc1)C(N)=O [Compound No. 150] (H-YNWNSYGLRF-NH2) | 320
6 | – | CC(C)C[C@H](NC(=O)CNC(=O)[C@H](Cc1ccccc1)NC(=O)[C@H](CO)NC(=O)[C@H](CC(N)=O)NC(=O)[C@H](Cc1c[nH]c2ccccc12)NC(=O)[C@H](CC(C)C)NC(=O)[C@@H](N)Cc1ccc(O)cc1)C(=O)N[C@@H](CCCNC(=N)N)C(=O)N[C@@H](Cc1ccccc1)C(N)=O [Compound No. 59] (H-YLWNSFGLRF-NH2) | 340
7 | – | CNC(N)=NCCC[C@H](NC(=O)[C@H](CC(C)C)NC(=O)NNC(=O)[C@H](Cc1ccccc1)NC(=O)[C@H](CO)NC(=O)[C@H](CC(N)=O)NC(=O)[C@H](Cc1ccccc1)NC(=O)[C@@H](CC(N)=O)NC(=O)[C@H](N)Cc1ccc(O)cc1)C(=O)N[C@@H](Cc1ccccc1)C(N)=O [Compound No. 257, D-Tyr-D-Asn-Phe-Asn-Ser-Phe-AzaGly-Leu-Arg(Me)-Phe-NH2] (H-[dY][dN]FNSF[azaGly]L[Arg(Me)]F-NH2) | 40
8 | – | CNC(=N)NCCC[C@H](NC(=O)[C@H](CC(C)C)NC(=O)NNC(=O)[C@H](Cc1ccccc1)NC(=O)[C@H](CO)NC(=O)[C@H](CC(N)=O)NC(=O)[C@@H]1CCCN1C(=O)[C@H](CC(N)=O)NC(=O)[C@H](N)Cc1ccc(O)cc1)C(=O)N[C@@H](Cc1ccccc1)C(N)=O [Compound No. 253, D-Tyr-Asn-Pro-Asn-Ser-Phe-AzaGly-Leu-Arg(Me)-Phe-NH2] (H-[dY]NPNSF[azaGly]L[Arg(Me)]F-NH2) | 27
9 | – | CC(C)[C@H](NC(=O)CNC(=O)[C@H](Cc1ccccc1)NC(=O)[C@H](CO)NC(=O)[C@H](CC(N)=O)NC(=O)[C@H](Cc1c[nH]c2ccccc12)NC(=O)[C@H](CC(N)=O)NC(=O)[C@@H](N)Cc1ccc(O)cc1)C(=O)N[C@@H](CCCNC(=N)N)C(=O)N[C@@H](Cc1ccccc1)C(N)=O [Compound No. 107] (H-YNWNSFGVRF-NH2) | 120
10 | – | CNC(N)=NCCC[C@H](NC(=O)[C@H](CC(C)C)NC(=O)NNC(=O)[C@H](Cc1ccccc1)NC(=O)[C@H](CO)NC(=O)[C@H](CC(N)=O)NC(=O)[C@@H](Cc1ccncc1)NC(=O)[C@H](CC(N)=O)NC(=O)[C@H](N)Cc1ccc(O)cc1)C(=O)N[C@@H](Cc1ccccc1)C(N)=O [Compound No. 302, D-Tyr-Asn-D-Pya(4)-Asn-Ser-Phe-AzaGly-Leu-Arg(Me)-Phe-NH2] (H-[dY]N[d4Pal]NSF[azaGly]L[Arg(Me)]F-NH2) | 7.7
11 | 2 | CNC(=N)NCCC[C@H](NC(=O)[C@H](CC(C)C)NC(=O)NNC(=O)[C@H](Cc1ccccc1)NC(=O)[C@H](CO)NC(=O)[C@H](CC(N)=O)NC(=O)[C@H](CC1CCCCC1)NC(=O)[C@@H](Cc1ccc(O)cc1)NC(=O)[C@H](N)Cc1cccnc1)C(=O)N[C@@H](Cc1ccccc1)C(N)=O [Compound No. 291, D-Pya(3)-D-Tyr-Cha-Asn-Ser-Phe-AzaGly-Leu-Arg(Me)-Phe-NH2] (H-[d3Pal][dY][Cha]NSF[azaGly]L[Arg(Me)]F-NH2; N-terminus assumed) | –
12 | 5 | CC(C)C[C@H](NC(=O)CNC(=O)[C@H](Cc1ccccc1)NC(=O)[C@H](CO)NC(=O)[C@H](CC(N)=O)NC(=O)[C@H](Cc1c[nH]c2ccccc12)NC(=O)OCC1c2ccccc2-c2ccccc21)C(=O)N[C@@H](CCCNC(=N)N)C(=O)N[C@@H](Cc1ccccc1)C(N)=O [Compound No. 54] (Fmoc-WNSFGLRF-NH2) | –
13 | 10 | CC[C@H](C)[C@H](NC(=O)[C@H](CC(N)=O)NC(=O)[C@H](N)Cc1ccc(O)cc1)C(=O)N[C@@H](CC(N)=O)C(=O)N[C@@H](CO)C(=O)N[C@@H](Cc1ccccc1)C(=O)NCC(=O)N[C@@H](CC(C)C)C(=O)N[C@@H](CCCNC(=N)NC)C(=O)N[C@@H](Cc1ccccc1)C(N)=O [Compound No. 206] (H-[dY]NINSFGL[Arg(Me)]F-NH2) | –
14 | 1 | CNC(=N)NCCC[C@H](NC(=O)[C@H](CC(C)C)NC(=O)NNC(=O)[C@H](Cc1ccccc1)NC(=O)[C@H](CO)NC(=O)[C@H](CC(N)=O)NC(=O)[C@H](Cc1ccccc1)NC(=O)[C@H](CC(N)=O)NC(=O)[C@H](N)Cc1ccc(O)cc1)C(=O)N[C@@H](Cc1ccccc1)C(N)=O [Compound No. 244, D-Tyr-Asn-Phe-Asn-Ser-Phe-AzaGly-Leu-Arg(Me)-Phe-NH2] (H-[dY]NFNSF[azaGly]L[Arg(Me)]F-NH2; N-terminus assumed) | –
15 | 5 | CC(C)C[C@H](NC(=O)CNC(=S)[C@H](Cc1ccccc1)NC(=O)[C@H](CO)NC(=O)[C@H](CC(N)=O)NC(=O)[C@H](Cc1c[nH]c2ccccc12)NC(=O)[C@H](CC(N)=O)NC(=O)[C@@H](N)Cc1ccc(O)cc1)C(=O)N[C@@H](CCCNC(=N)N)C(=O)N[C@@H](Cc1ccccc1)C(N)=O [Compound No. 166, Tyr-Asn-Trp-Asn-Ser-Phe Ψ(CSNH)Gly-Leu-Arg-Phe-NH2] (H-YNWNS[X11]LRF-NH2) | –
16 | 1 | CNC(=N)NCCC[C@H](NC(=O)[C@H](CC(C)C)NC(=O)NNC(=O)[C@H](Cc1ccccc1)NC(=O)[C@H](CO)NC(=O)[C@H](CC(N)=O)NC(=O)[C@@H](NC(=O)[C@@H](CC(N)=O)NC(=O)[C@H](N)Cc1ccc(O)cc1)[C@@H](C)O)C(=O)N[C@@H](Cc1ccccc1)C(N)=O [Compound No. 284, D-Tyr-D-Asn-Thr-Asn-Ser-Phe-AzaGly-Leu-Arg(Me)-Phe-NH2] (H-[dY][dN]TNSF[azaGly]L[Arg(Me)]F-NH2) | –
